Numbers after ± are expanded uncertainties.
Details: 351.2 K; Liquid; Ebulliometric method (Recirculating still)

**Q.** Which “vapor or sublimation pressure” value does the source give for `CCO` [ethanol] here?
**A.** 101.3 ± 3 kPa
